Experimental data as given in patent publication US4620871A (priority 1980, dated 1986).

Legend:
[1] = test system: Bean; test: Stimulation of photosynthesis, 14CO2 incorporation, bean leaf discs (Example 20); details: foliar, 2 hours
Experimental: The specific radioactivities of the stock solutions were determined by liquid scintillation. In the control test untreated leaf discs were exposed to labelled carbon, dioxide, and the amount of carbon dioxide incorporated under such conditions was regarded as standard.

[2] = test system: Alfalfa; test: Alfalfa field tests 1979, Boly (Example 26); format: in vivo
From the text: The effects of the compositions according to the invention exerted on the crop yield (green yield), crude protein content, protein nitrogen content and C/N ratio of alfalfa, observed under field conditions in the tests performed in 1979 at the Agricultural Combinate of Boly, Hungary, are listed in Table 17.

[3] = test system: Soybean; test: Stimulation of photosynthesis, 14CO2 incorporation, soybean leaf discs (Example 20); details: Glycine max, foliar, 2 hours
Experimental: The compositions according to the invention were diluted with distilled water to an active agent content of 200 ppm, and leaf discs of alfalfa, soybean, bean and maize, weighing 200 mg each, were floated on the surfaces of the resulting solutions for 2 hours. Thereafter the treated leaf discs were place into the assimilation chamber of an appropriate measuring apparatus, and a known amount of radioactive carbon dioxide gas (^14 CO2) was introduced into the assimilation chamber from a reservoir by means of a gas feeder for 0.5 hours under carefully controlled illumination conditions. Thereafter the leaf discs were frozen with liquid nitrogen, triturated with 50% by weight perchloric acid in a potter homogenizer, and stock solutions were prepared from the resulting mixtures. The specific radioactivities of the stock solutions were determined by liquid scintillation.
(§1) In the control test untreated leaf discs were exposed to labelled carbon, dioxide, and the amount of carbon dioxide incorporated under such conditions was regarded as standard.

[4] = test system: Soybean; test: Total and protein nitrogen content of soybean (Example 39); format: in vivo
From the text: The effects of 1,4-dihydroxyphthalazine and salts thereof exerted on the total nitrogen content and protein nitrogen content of soybean were examined as described in Example 27. The plants were sprayed with the compositions according to the invention at the beginning of the flowering of the apical cluster.

[5] = test system: maize for silage; test: Maize for silage field tests 1979, Boly (Example 28); format: in vivo
From the text: The effects of the cytokinin-like regulators on the crop yield, crude protein content and real protein content of maize for silage, observed under field conditions in the tests performed in 1979 at the Agricultural Combinate of Boly, Hungary, are listed in Table 20.

[6] = test system: Tobacco callus; test: Growth of tobacco callus vs kinetin (Example 14); format: cell-based; details: 2 ppm active agent
Experimental: An untreated culture medium served as control. Tobacco callus was grown on the treated and untreated culture media (incubation period: 3 weeks), and the daily growth, the increase in cell number and the frequency of mitosis were measured according to the method of Skoog.
The test described in Example 13 was repeated so that a culture medium containing 1 ppm of kinetin was used as control, and the compositions according to the invention were applied in amounts corresponding to 2 ppm of active agent.

[7] = test system: Pinto bean; test: Stimulation of membrane activity (nitrate uptake), Pinto bean (Example 25); format: in vivo; details: for Protein nitrogen / Total nitrogen: 2 weeks; for Protein nitrogen / Total nitrogen / Protein nitrogen, stimulation / Protein nitrogen content in % of the total nitrogen content: zeatin 20, kinetin/benzyladenine 30, others 200 ppm; for Protein nitrogen: control 2.4; for Total nitrogen: control 3.8; for Total nitrogen, stimulation: 200 ppm; for Protein nitrogen content in % of the total nitrogen content: control 63
Experimental: The tests were performed on Pinto bean. The plants were treated with solutions of an endogeneous cytokinin (zeatin), synthetic cytokinins and membraneactive regulators according to the invention, respectively, and the leaves of the plants were analyzed 2 weeks after the treatment.

[8] = test system: Maize; test: Stimulation of photosynthesis, 14CO2 incorporation, maize leaf discs (Example 20); details: Zea mays, foliar, 2 hours
Experimental: The specific radioactivities of the stock solutions were determined by liquid scintillation.
as §1

[9] = test system: Soybean; test: Inhibition of the decomposition of chlorophyll in soybean leaf segments; details: 4 days dark
Experimental: (§2) The active agent to be tested was dissolved in distilled water to form a 200 ppm solution, and leaf segments of the plants under examination, weighing 200 mg, were floated on the surface of the solution for 4 days in the dark. Thereafter chlorphyll was extracted from the leaf segments with methanol.
(§3) To determine the starting state, chlorophyll was extracted with methanol from untreated leaf segments weighing 200 mg. In the control test the leaf segments, weighing 200 mg, were floated on the surface of distilled water for 4 days in the dark, and then chlorophyll was extracted from the leaf segments with methanol.
(§4) The chlorophyll concentration was determined by measuring the extinction of the extracts at 665 mμ.

[10] = test system: Barley; test: Inhibition of the decomposition of chlorophyll in barley leaf segments; details: 4 days dark
Experimental: as §2, §3, §4

[11] = test system: Bean; test: Inhibition of the decomposition of chlorophyll in bean leaf segments; details: 4 days dark
Experimental: as §2, §3, §4

[12] = test system: Alfalfa; test: Inhibition of the decomposition of chlorophyll in alfalfa; details: 200 ppm, 100 mg green plant, control 0.78
Experimental: as §3, with “Thereafter chlorphyll was extracted from the leaf segments with methanol. To” for “To”, “methanol. […] For alfalfa and maize the chlorphyll contents of 100 mg of green plant were examined.” for “methanol.”

[13] = test system: maize leaves; test: Fixation of 14CO2 in maize leaves (Example 36); details: 18 hours
Experimental: (§5) The biological activities of cytokinin-like factors can be well characterized by measuring the intensity of the photosynthetic carbon dioxide fixation and the incorporation of labelled amino acids into the TCA-insoluble protein fraction. The intensity of photosynthetic carbon dioxide fixation was determined on maize leaves, utilizing ^14 CO2, whereas the incorporation of amino acids was examined on bean leaves, utilizing […]-^14 C.

[14] = test system: Maize; test: Inhibition of the decomposition of chlorophyll in maize; details: 200 ppm, 100 mg green plant, control 0.65
Experimental: as §3, with “Thereafter chlorphyll was extracted from the leaf segments with methanol. To” for “To”, “methanol. […] For alfalfa and maize the chlorphyll contents of 100 mg of green plant were examined.” for “methanol.”

[15] = test system: bean leaves; test: Incorporation of Gly-2-14C in bean leaves (Example 36); details: 18 hours
Experimental: as §5

N=C(N)N.N=C(N)N.Oc1nnc(O)c2ccccc12 [1,4-dihydroxyphthalazine diguanidine salt] was tested. Which activation at 200 ppm [1] did it give?
The activation at 200 ppm was 4%.

What about the P2O5 content ([2]; control 8.3) of the same compound?
The P2O5 content was 10.3 % of dry substance.

And the Crude protein content ([2]; control 21.3)?
The Crude protein content was 25.4 % of dry substance.

What about the Green yield ([2]; control 120) of the same compound?
The Green yield was 146 q/ha.

And the “Crude protein content, increase” value ([2]; in vivo)?
The value was 19.4%.

What about the “Green yield, increase” value ([2]; in vivo) of the same compound?
The value was 22.3%.

And the “P2O5 content, increase” value ([2]; in vivo)?
Its value is 24.6%.

What about the activation at 200 ppm [3] of the same compound?
The activation at 200 ppm was 67%.

What about the Protein nitrogen content ([4]; control 1.9) of the same compound?
Its Protein nitrogen content is 3.9 % of dry substance.

What about the Total nitrogen content ([4]; control 2.6) of the same compound?
Its Total nitrogen content is 4.7 % of dry substance.

What about the “Protein nitrogen content, increase” value ([4]; in vivo) of the same compound?
Its value is 105.3%.

And the “Total nitrogen content, increase” value ([4]; in vivo)?
The value was 81.0%.

What about the P2O5 content ([5]; control 7.5) of the same compound?
Its P2O5 content is 9.5 % of dry substance.

What about the Crude protein content ([5]; control 13.2) of the same compound?
Its Crude protein content is 16.0 % of dry substance.

And the Green weight ([5]; control 310.2)?
Its Green weight is 361.3 q/ha.

What about the “Crude protein content, increase” value ([5]; in vivo) of the same compound?
Its value is 21.3%.

And the “Green weight, increase” value ([5]; in vivo)?
Its value is 15.5%.

And the “P2O5 content, increase” value ([5]; in vivo)?
The value was 27.2%.

And the “Dry weight of the callus” value ([6]; kinetin 1 ppm)?
The value was 170.92 mg.

What about the Speed of growth ([6]; kinetin 1 ppm) of the same compound?
The Speed of growth was 98.23.

And the activity at 2 ppm ([6]; Nicotiana tabacum, 504 h, kinetin 1 ppm = 100, read-out: Speed of growth, Index %)?
The activity at 2 ppm was 98.2%.

And the Protein nitrogen [7]?
Its Protein nitrogen is 4.1 % of dry weight.

And the Total nitrogen [7]?
The Total nitrogen was 4.8 % of dry weight.

And the “Total nitrogen, stimulation” value [7]?
Its value is 26.3%.

What about the “Protein nitrogen, stimulation” value [7] of the same compound?
Its value is 70.8%.

And the “Protein nitrogen content in % of the total nitrogen content” value [7]?
The value was 85%.

What about the activation at 200 ppm [8] of the same compound?
The activation at 200 ppm was 12%.

And the Chlorophyll ([9]; 200 ppm, control 3.5)?
The Chlorophyll was 5.4 mg.

And the activation at 200 ppm ([9]; Glycine max, foliar, 96 h, read-out: Promotion)?
The activation at 200 ppm was 54%.

What about the Chlorophyll ([10]; 200 ppm, control 3.7) of the same compound?
The Chlorophyll was 9.7 mg.

And the activation at 200 ppm ([10]; Hordeum vulgare, foliar, 96 h, read-out: Promotion)?
Its activation at 200 ppm is 162%.

What about the Chlorophyll ([11]; 200 ppm, control 4.2) of the same compound?
The Chlorophyll was 6.5 mg.

And the activation at 200 ppm ([11]; foliar, 96 h, read-out: Promotion)?
Its activation at 200 ppm is 54%.

How did the Protein nitrogen [7] turn out when CCC[n+]1c[nH]c2ccccc21.[Br-] [N--(n-Propyl)-benzimidazolium bromide, N-(n-propyl)-benzimidazolium bromide] was run?
Its Protein nitrogen is 4.4 % of dry weight.

And the Total nitrogen [7]?
Its Total nitrogen is 5.3 % of dry weight.

And the “Total nitrogen, stimulation” value [7]?
Its value is 39.4%.

And the “Protein nitrogen, stimulation” value [7]?
Its value is 83.3%.

And the “Protein nitrogen content in % of the total nitrogen content” value [7]?
The value was 83%.

And the Chlorophyll content [12]?
The Chlorophyll content was 0.96 mg.

And the “Fixation of 14CO2” value ([13]; fresh weight, control 5.72)?
Its value is 10.52 μCi/g.

And the “Fixation of 14CO2, %” value ([13]; increase over control)?
The value was 84%.

What about the Chlorophyll content [14] of the same compound?
The Chlorophyll content was 0.82 mg.

And the “Incorporation of Gly-2-14C” value ([15]; fresh weight, control 3.52)?
The value was 4.96 μCi/g.

What about the “Incorporation of Gly-2-14C, %” value ([15]; increase over control) of the same compound?
Its value is 41%.
